The results in this text go back to patent US7888025B2, “Intestinal folate transporter method” (Albert Einstein College of Medicine of Yeshiva University, priority 2007, dated 2011).

Molecules are shown by their SMILES. Like-named read-outs stand apart in the source and are kept apart here.

In general, Km refers to the substrate concentration at which the rate is half of its maximum.

Format in all cases: cell-based
Test [1] deals with T1, G21 (PCFT) (Homo sapiens, UniProt Q96NT5).
T1 construct: expressed in transfected cells; host or cells: Xenopus laevis oocytes injected with capped G21 cRNA (pSPT64, SP6)
T1 sequence (Q96NT5 1-459): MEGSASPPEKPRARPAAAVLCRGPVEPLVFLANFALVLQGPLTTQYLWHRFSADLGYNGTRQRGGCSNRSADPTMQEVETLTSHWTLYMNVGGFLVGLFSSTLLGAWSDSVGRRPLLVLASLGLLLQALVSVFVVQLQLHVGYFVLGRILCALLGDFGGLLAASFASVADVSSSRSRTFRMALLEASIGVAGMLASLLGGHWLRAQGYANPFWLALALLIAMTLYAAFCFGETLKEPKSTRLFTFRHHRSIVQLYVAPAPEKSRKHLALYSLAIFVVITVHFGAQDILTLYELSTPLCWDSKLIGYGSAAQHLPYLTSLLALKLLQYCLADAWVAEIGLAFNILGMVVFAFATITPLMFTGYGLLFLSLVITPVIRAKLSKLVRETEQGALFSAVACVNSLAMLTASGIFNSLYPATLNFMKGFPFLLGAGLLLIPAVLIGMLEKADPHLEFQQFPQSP
As to the kind of experiment: Uptake of tritiated folates in G21 cRNA-injected Xenopus oocytes. As to conditions: for G21-mediated transport activity: pH 7.5, 2 μM tritiated substrate, 30 min. As to the method:
Uptake studies in Xenopus oocytes. Defolliculated Xenopus laevis oocytes were prepared as described (Jansen and Akabas, 2006) and injected with 50 nl of water or G21 cRNA (30 ng). Radiotracer uptake was determined 3 or 4 days later. Seven to 10 oocytes were incubated in 500 μl of Modified Barth's Solution (MBS, in mM, 88 NaCl, 2.4 NaHCO3, 2.5 Na pyruvate, 1 KCl, 0.82 MgSO4, 0.41 CaCl2, 0.3 Ca(NO3)2, 15 MES or HEPES) and uptake of tritiated folate substrates assessed at room temperature. Uptake was halted by the addition of ice-cold MBS (pH 7.5). Oocytes were washed 10 times thereafter, and solubilized with 10% SDS for measurement of radioactivity. To collapse the pH gradient across the oocyte membrane, seven to 10 oocytes were incubated in MBS (pH 5.5) containing 0, 10, 20, 40, 60 μM FCCP for 20 min, and uptake of transport substrates assessed at pH 5.5.

In test [2] the target is T1, G21 (PCFT). As to the kind of experiment: Inhibition of [3H]folic acid uptake into G21 cRNA-injected Xenopus oocytes. As to conditions: 20 μM nonlabeled compound, pH 5.5, 30 min. As to the method:
Uptake studies in Xenopus oocytes. […] Radiotracer uptake was determined 3 or 4 days later. […] Uptake was halted by the addition of ice-cold MBS (pH 7.5). Oocytes were washed 10 times thereafter, and solubilized with 10% SDS for measurement of radioactivity. To collapse the pH gradient across the oocyte membrane, seven to 10 oocytes were incubated in MBS (pH 5.5) containing 0, 10, 20, 40, 60 μM FCCP for 20 min, and uptake of transport substrates assessed at pH 5.5.

The target in test [3] is T1, G21 (PCFT). As to the kind of experiment: Two-electrode voltage-clamp electrophysiology in G21 cRNA-injected Xenopus oocytes. Conditions: for Km: read-out: electrophysiologically determined Km. The procedure: Electrophysiological analyses in Xenopus oocytes. Defolliculated oocytes were injected with 50 nl of water (control) or G21 cRNA (50 ng), and kept at 17° C. in horse serum medium (in mM, 82.5 NaCl, 2.5 KCl, 1 MgCl2, 2.3 CaCl2, 5 HEPES, 5% horse serum, pH 7.5). Electrophysiological recordings were conducted 3-7 days after cRNA injection in buffer (in mM, 90 NaCl, 1 KCl, 1 MgCl2, 1.8 CaCl2, 5 TRIS, 5 MES) as described previously (Jansen and Akabas, 2006). Oocyte holding potential was −80 mV for Km determination. For current-voltage (I-V) relationships, from a −60 mV holding potential step changes in membrane potential were applied for 2 s in 10 mV increments between −100 and 30 mV in the absence and presence of substrate.
(Two-electrode voltage clamp is typically applied to oocytes expressing channels or transporters.)

Where [4] appears, read: changing the pH from 5.5 to 6.5.
Setting [5] is: increasing the pH from 6.5 to 7.5.
[6] abbreviates: 10 μM FCCP, 20 min pre-incubation, extracellular pH 5.5, 2 μM substrate.

For the compound `Nc1nc2c(c(=O)[nH]1)N(C=O)[C@@H](CNc1ccc(C(=O)N[C@@H](CCC(=O)O)C(=O)O)cc1)CN2` [(6S)5-FTHF, (6S)5-formyltetrahydrofolate], the G21-mediated transport activity entry at G21 (PCFT) [1] is recorded as “residual activity”. Besides, at G21 (PCFT) [2], the “inhibitory effect on uptake of 2 μM [3H]folic acid” value (shortened to “inhibitory effect on uptake of 2 μM”) is “more potent than the unnatural 6R isomer”.

As for `CN1c2c(nc(N)[nH]c2=O)NC[C@@H]1CNc1ccc(C(=O)N[C@@H](CCC(=O)O)C(=O)O)cc1` [(6S)5-MTHF, (6S)5-methyltetrahydrofolate], the G21-mediated transport activity entry on G21 (PCFT) [1] was “residual activity”. Further, the “shift of reversal potential” value at G21 (PCFT) [3] (setting [4]) was −6 mV; at G21 (PCFT) [3] (setting [5]), −30 mV. Further, the Km is 0.53 ± 0.04 µM at G21 (PCFT) [3] (pH 5.5, holding potential −80 mV) and 0.78 ± 0.14 µM at G21 (PCFT) [3] (pH 6.5, holding potential −80 mV). For the same compound, on G21 (PCFT) [2], the “inhibitory effect on uptake of 2 μM” value is listed as “comparable to those of (6S)5-FTHF”.

Take `O=C1OC(c2ccc(O)c(S(=O)(=O)O)c2)(c2ccc(O)c(S(=O)(=O)O)c2)c2c(Br)c(Br)c(Br)c(Br)c21` [Bromosulphopthalein]: the “inhibitory effect on uptake of 2 μM” value at G21 (PCFT) [2] is “did not inhibit”.

In the case of `N#CC(C#N)=NNc1ccc(OC(F)(F)F)cc1` [FCCP, carbonyl cyanide 4-(trifluoromethoxy) phenylhydrazone], at G21 (PCFT) [1] (setting [6]), the “effect on [3H]MTX uptake” value was “markedly decreased” and the “effect on [3H]folic acid uptake” value is “markedly decreased”.

On to `CN(Cc1cnc2nc(N)nc(N)c2n1)c1ccc(C(=O)N[C@@H](CCC(=O)O)C(=O)O)cc1` [MTX, methotrexate], for which the “shift of reversal potential” value at G21 (PCFT) [3] (setting [4]) is on record as −8 mV; on G21 (PCFT) [3] (setting [5]), −36 mV. For the same compound, the “lowest concentration at which current was detected” value at G21 (PCFT) [3] (pH 5.5, Vh −80 mV) stood at 0.1 µM. For the same compound, the “current amplitude larger than (6S)5-MTHF-induced current” value on G21 (PCFT) [3] (saturating concentrations, same oocyte, pH 5.5) is recorded as 86±11%. Further, the “inhibitory effect on uptake of 2 μM” value at G21 (PCFT) [2] is on record as “less effective competitor than folic acid”.

`C[C@H](CCC(=O)O)[C@H]1CC[C@H]2[C@@H]3[C@H](O)C[C@@H]4C[C@H](O)CC[C@]4(C)[C@H]3C[C@H](O)[C@]12C` [cholic acid]: the “inhibitory effect on uptake of 2 μM” value at G21 (PCFT) [2] was “did not inhibit”.

`C[C@]12CC[C@@H]3c4ccc(OS(=O)(=O)O)cc4CC[C@H]3[C@@H]1CCC2=O` [estrone-3-sulfate]: the “inhibitory effect on uptake of 2 μM” value against G21 (PCFT) [2] was “did not inhibit”.

As for `Nc1ccc(C(=O)NCC(=O)O)cc1` [para-aminohippuric acid], on G21 (PCFT) [2], the “inhibitory effect on uptake of 2 μM” value is listed as “did not inhibit”.

As to `Nc1nc2[nH]cc(CCc3ccc(C(=O)N[C@@H](CCC(=O)O)C(=O)O)cc3)c2c(=O)[nH]1` [pemetrexed], on G21 (PCFT) [2], the “inhibitory effect on uptake of 2 μM” value is on record as “most potent competitor”.

Take `C[C@H](CCC(=O)NCCS(=O)(=O)O)[C@H]1CC[C@H]2[C@@H]3[C@H](O)C[C@@H]4C[C@H](O)CC[C@]4(C)[C@H]3C[C@H](O)[C@]12C` [taurocholic acid]: the “inhibitory effect on uptake of 2 μM” value against G21 (PCFT) [2] is “did not inhibit”.
